According to patent US20210255193A1, “LYSINE REACTIVE PROBES AND USES THEREOF” (The Scripps Research Institute, priority 2017, published 2021):

Legend:
Assay in all cases: competitive isoTOP-ABPP
Type in all cases: binding
[1] = molecular target: T1, TPD52L2 Tumor protein D54 (Homo sapiens, UniProt O43399); parameters: key to isoTOP-ABPP reactivity ratio at lysine O43399_K90: R = MS1 peak area ratio, DMSO (heavy) / compound-treated (light); details: 50 uM, in vitro; for isoTOP-ABPP reactivity ratio at lysine O43399_K90: 231 sol; for isoTOP-ABPP ratio (R) at liganded lysine O43399_K90: sol, 231
T1 construct: isoTOP-ABPP experiments performed in cell lysates (in vitro); endogenous in cells; host or cells: MDA-MB-231 soluble lysate
T1 sequence (O43399 whole entry): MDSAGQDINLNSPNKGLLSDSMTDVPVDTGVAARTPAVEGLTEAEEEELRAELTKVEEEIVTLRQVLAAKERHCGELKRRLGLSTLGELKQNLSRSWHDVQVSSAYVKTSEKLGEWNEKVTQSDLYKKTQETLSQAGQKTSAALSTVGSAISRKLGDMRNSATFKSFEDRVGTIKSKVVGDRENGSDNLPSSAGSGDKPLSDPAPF
Method: (§1) In vitro covalent fragment treatment for isoTOP-ABPP. All compounds were made up as solutions in DMSO (100×) and were used at a final concentration of 50 μM for activated esters and 100 μM for guanidinylating agents. For each profiling sample, 0.5 ml of lysate was treated with 5 μl of the 100× compound stock solution or 5 μl of DMSO. Samples were treated with activated esters for
(§2) STP-alkyne labeling and click chemistry. For concentration-dependent reactivity measurements by isoTOP-ABPP, 0.5 ml proteome aliquots were treated at ambient temperature with 1 mM STP-alkyne 1 (5 μl of 100 mM stock in DMSO) and 0.1 mM STP alkyne 1 (5 μl of 10 mM stock in DMSO), respectively. For competitive isoTOP-ABPP, after in vitro fragment treatment (detailed above), the samples were labeled for 1 h at ambient temperature with 0.1 mM STP-alkyne 1 (5 μl of 10 mM stock in DMSO). Samples were conjugated by copper-mediated azide-alkyne cycloaddition (CuAAC) to either the light (1 mM STP-alkyne or fragment treated) or heavy (0.1 mM STP-alkyne or DMSO treated) TEV tags (10 μl of 5 mM stocks in DMSO, final concentration=100 μM) using tris(2-carboxyethyl)phosphine hydrochloride
(§3) R value calculation and processing. The ratios of light and heavy MS1 peaks for each unique peptide were quantified with a CIMAGE software using default parameters (3 MS1 acquisitions per peak and signal to noise threshold set to 2.5). For reactivity measurements by isoTOP-ABPP, the R value was calculated from the ratio of MS1 peak areas, comparing the 1 mM STP alkyne sample (light TEV tag) with the 0.1 mM STP alkyne sample (heavy TEV tag). For competitive isoTOP-ABPP, the R value was calculated from the ratio of MS1 peak areas, comparing the DMSO treated sample (heavy TEV tag) with the compound treated sample (light TEV tag). […] Ratios for unique peptide entries are calculated for each experiment; overlapping peptides with the same modified lysine (for example, different charge states, MudPIT chromatographic steps or tryptic termini) are grouped together and the median ratio is reported as the final ratio (R). The peptide ratios reported by CIMAGE were further filtered to ensure the removal or correction of low-quality ratios in each individual data set. The quality filters applied were the following: removal of half tryptic peptides; for ratios with high standard deviations from the median (90% of the median or above) the lowest ratio was taken instead of the median; removal of peptides with R=20 and only a single MS2 event triggered during the elution of the parent ion; manual annotation of all the peptides with ratios of 20, removing any peptides with low quality elution profiles that remained after the previous curation steps (only done for competitive isoTOP-ABPP).
(§4) Cross-data processing for fragment screening. For compound treated samples, biological replicates of the same condition were averaged, if the standard deviation was below 60% of the mean; otherwise, for lysines with at least one R value <4 for a particular compound, the lowest value of the ratio set was taken. For lysines, where all R values for a particular compound were ≥4, the average was reported. For peptides containing several possible modified lysines, the lysine with the highest number of quantification events was used for analysis and the remaining, redundant peptides were reported as alternative modification sites. Peptides included in the aggregate dataset (those used for further bioinformatics and statistical analyses) were required to have been quantified in 2 experiments for competitive isoTOP-ABPP. Lysines were categorized as liganded, if they had at least one ratio R≥4 (hit fragments). For liganded lysines with R=20 for all liganding events, lysines were required to have been quantified with R=20 in two separate experiments and were further required to have been quantified with R<20 in one additional experiment.

ADK Adenosine kinase = molecular target: T2, ADK Adenosine kinase (Homo sapiens, UniProt P55263); parameters: key to isoTOP-ABPP reactivity ratio at lysine P55263_K88: R = MS1 peak area ratio, DMSO (heavy) / compound-treated (light); details: 50 uM, in vitro; for isoTOP-ABPP reactivity ratio at lysine P55263_K88: 231 sol; for isoTOP-ABPP ratio (R) at liganded lysine P55263_K88: sol, 231
T2 construct: isoTOP-ABPP experiments performed in cell lysates (in vitro); endogenous in cells; host or cells: soluble proteome of human cancer cell lines (MDA-MB-231, Ramos, Jurkat)
T2 sequence (P55263 whole entry): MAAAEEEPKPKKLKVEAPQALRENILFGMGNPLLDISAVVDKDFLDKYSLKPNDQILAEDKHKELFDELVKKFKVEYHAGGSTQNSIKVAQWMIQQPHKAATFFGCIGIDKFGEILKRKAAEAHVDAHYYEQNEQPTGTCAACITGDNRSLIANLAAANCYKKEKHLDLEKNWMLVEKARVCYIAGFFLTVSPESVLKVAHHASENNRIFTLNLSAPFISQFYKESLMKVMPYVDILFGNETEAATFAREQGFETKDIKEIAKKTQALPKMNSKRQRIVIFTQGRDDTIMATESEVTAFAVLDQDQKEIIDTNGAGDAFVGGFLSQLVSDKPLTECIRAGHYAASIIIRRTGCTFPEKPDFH
Method: as §1, §2, §3, §4

[2] = molecular target: T3, AGFG1 Arf-GAP domain and FG repeat-containing protein 1 (Homo sapiens, UniProt P52594); parameters: key to isoTOP-ABPP reactivity ratio at lysine P52594_K134: R = MS1 peak area ratio, DMSO (heavy) / compound-treated (light); details: 50 uM, in vitro; for isoTOP-ABPP reactivity ratio at lysine P52594_K134: 231 sol; for isoTOP-ABPP ratio (R) at liganded lysine P52594_K134: sol, 231
T3 construct: isoTOP-ABPP experiments performed in cell lysates (in vitro); endogenous in cells; host or cells: soluble proteome of human cancer cell lines (MDA-MB-231, Ramos, Jurkat)
T3 sequence (P52594 1-562): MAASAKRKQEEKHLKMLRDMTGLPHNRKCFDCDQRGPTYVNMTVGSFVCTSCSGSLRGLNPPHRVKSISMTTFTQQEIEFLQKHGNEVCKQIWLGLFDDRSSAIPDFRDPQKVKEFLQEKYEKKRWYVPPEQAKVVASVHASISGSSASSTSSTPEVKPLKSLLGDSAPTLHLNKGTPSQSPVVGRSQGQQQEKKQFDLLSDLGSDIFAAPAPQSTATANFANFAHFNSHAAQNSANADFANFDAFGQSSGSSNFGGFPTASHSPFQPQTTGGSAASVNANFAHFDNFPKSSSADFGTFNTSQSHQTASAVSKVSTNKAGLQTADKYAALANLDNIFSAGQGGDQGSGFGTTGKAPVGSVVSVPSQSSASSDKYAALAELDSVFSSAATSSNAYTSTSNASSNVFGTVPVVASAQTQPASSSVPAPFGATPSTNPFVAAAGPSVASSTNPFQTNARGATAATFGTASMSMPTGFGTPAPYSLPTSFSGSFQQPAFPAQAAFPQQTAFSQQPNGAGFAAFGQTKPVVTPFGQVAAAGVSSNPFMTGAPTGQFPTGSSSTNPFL
Method: as §1, §2, §3, §4

[3] = molecular target: T4, ECH1 Delta(3,5)-Delta(2,4)-dienoyl-CoA isomerase, mitochondrial (Homo sapiens, UniProt Q13011); parameters: key to isoTOP-ABPP reactivity ratio at lysine Q13011_K112: R = MS1 peak area ratio, DMSO (heavy) / compound-treated (light); capped at 20; details: 50 uM, in vitro; for isoTOP-ABPP reactivity ratio at lysine Q13011_K112: 231 sol; for isoTOP-ABPP ratio (R) at liganded lysine Q13011_K112: sol, 231
T4 construct: isoTOP-ABPP experiments performed in cell lysates (in vitro); endogenous in cells; host or cells: soluble proteome of human cancer cell lines (MDA-MB-231, Ramos, Jurkat)
T4 sequence (Q13011 34-328): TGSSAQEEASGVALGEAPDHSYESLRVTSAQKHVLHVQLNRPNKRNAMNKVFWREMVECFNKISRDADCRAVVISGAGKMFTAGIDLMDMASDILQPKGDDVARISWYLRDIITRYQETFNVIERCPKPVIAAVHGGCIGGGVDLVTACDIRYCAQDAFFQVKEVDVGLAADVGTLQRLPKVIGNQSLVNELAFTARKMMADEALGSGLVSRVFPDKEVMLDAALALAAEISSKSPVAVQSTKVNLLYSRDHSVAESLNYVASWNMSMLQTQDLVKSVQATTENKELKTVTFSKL
Method: as §1, §2, §3, §4

Row | SMILES | isoTOP-ABPP reactivity ratio at lysine O43399_K90 [1] | isoTOP-ABPP reactivity ratio at lysine P55263_K88 (ADK Adenosine kinase) | isoTOP-ABPP reactivity ratio at lysine P52594_K134 [2] | isoTOP-ABPP reactivity ratio at lysine Q13011_K112 [3] | isoTOP-ABPP ratio (R) at liganded lysine O43399_K90 [1] | isoTOP-ABPP ratio (R) at liganded lysine P55263_K88 (ADK Adenosine kinase) | isoTOP-ABPP ratio (R) at liganded lysine P52594_K134 [2] | isoTOP-ABPP ratio (R) at liganded lysine Q13011_K112 [3]
1 | O=C(Oc1ccc([N+](=O)[O-])cc1[N+](=O)[O-])C(c1ccccc1)c1ccccc1 [fragment 30, 2,4-Dinitrophenyl 2,2-diphenylacetate] | 5.5 | 0.8 | 14.3 | 0.9 | – | – | – | –
2 | O=C(Oc1ccc([N+](=O)[O-])cc1[N+](=O)[O-])c1cc(C(F)(F)F)cc(C(F)(F)F)c1 [fragment 31, 2,4-Dinitrophenyl 3,5-bis(trifluoromethyl)benzoate] | 3.3 | 0.7 | 1.2 | 1.2 | – | – | – | –
3 | Cn1cc(CC(=O)Oc2ccc([N+](=O)[O-])cc2[N+](=O)[O-])c2ccccc21 [fragment 32, 2,4-Dinitrophenyl 2-(1-methyl-1H-indol-3-yl)acetate] | 2.7 | 1.4 | 19.9 | 1.0 | – | – | – | –
4 | COc1cc(CCC(=O)Oc2ccc([N+](=O)[O-])cc2[N+](=O)[O-])cc(OC)c1OC [fragment 33, 2,4-Dinitrophenyl 3-(3,4,5-trimethoxyphenyl)propanoate] | 1.3 | 0.9 | 20.0 | 0.9 | – | – | – | –
5 | O=C(Oc1ccc([N+](=O)[O-])cc1[N+](=O)[O-])C1CCN(C(=O)OCc2ccccc2)CC1 [fragment 34, 1-Benzyl 4-(2,4-dinitrophenyl) piperidine-1,4-dicarboxylate] | – | – | – | – | 1.8 | 20.0 | 20.0 | 1.1
6 | O=C(CCc1coc2cc(F)ccc2c1=O)Oc1ccc([N+](=O)[O-])cc1[N+](=O)[O-] [fragment 36, 2,4-Dinitrophenyl 3-(7-fluoro-4-oxo-4H-chromen-3-yl)propanoate] | – | – | – | – | 1.3 | 20.0 | 20.0 | 1.3
7 | O=C(Oc1ccc([N+](=O)[O-])cc1[N+](=O)[O-])c1ccc(-c2ccccc2)cc1 [fragment 37, 2,4-Dinitrophenyl [1,1′-biphenyl]-4-carboxylate] | – | – | – | – | 1.6 | 0.8 | 1.1 | 0.9
8 | O=C(CC12CC3CC(CC(C3)C1)C2)Oc1ccc([N+](=O)[O-])cc1[N+](=O)[O-] [fragment 38, 2,4-Dinitrophenyl 2-(adamantan-1-yl)acetate] | – | – | – | – | 2.9 | 0.9 | 1.4 | 0.9
9 | O=C(Oc1ccc([N+](=O)[O-])cc1[N+](=O)[O-])c1ccc(Oc2ccccc2)cc1 [fragment 39, 2,4-Dinitrophenyl 4-phenoxybenzoate] | – | – | – | – | 1.3 | 0.9 | 1.0 | 1.1
10 | O=C(Oc1ccc([N+](=O)[O-])cc1[N+](=O)[O-])c1ccccc1Nc1cccc(C(F)(F)F)c1 [fragment 40, 2,4-Dinitrophenyl 2-((3-(trifluoromethyl)phenyl)amino)benzoate] | – | – | – | – | 1.2 | 0.9 | 0.8 | 1.0
11 | CC(C)(C)OC(=O)NCCCC(=O)Oc1ccc([N+](=O)[O-])cc1[N+](=O)[O-] [fragment 41, 2,4-Dinitrophenyl 4-((tert-butoxycarbonyl)amino)butanoate] | – | – | – | – | 1.3 | 1.5 | 20.0 | 1.0
12 | O=C(Oc1ccc([N+](=O)[O-])cc1[N+](=O)[O-])C(c1ccccc1)(c1ccccc1)c1ccccc1 [fragment 42, 2,4-Dinitrophenyl 2,2,2-triphenylacetate] | – | – | – | – | 1.0 | 1.0 | 1.0 | 1.0
13 | CC(=O)Oc1ccc([N+](=O)[O-])cc1[N+](=O)[O-] [fragment 43, 2,4-Dinitrophenyl acetate] | – | – | – | – | 1.1 | 0.9 | 4.8 | 1.2
